According to patent US20100068302A1, “METHODS AND COMPOSITIONS FOR THE TREATMENT OF CANCER” (TRASLATIONAL CANCER DRUGS PHARMA, S.L., priority 2008, published 2010):
Several values for one entry are separate records, joined by “and”; a condition that tells them apart may be missing. Identical values can stand only once. Like-named read-outs stand apart in the source and are kept apart here.

Columns and labels:
[1] = test system: H460stock cells; experiment: Cell proliferation assay (MTT), H460stock control line; format: cell-based, human
Protocol: (§1) Cell lines resistant to MN58b and RSM-932A (identified as MN58R and RSM-932A-R, respectively) were generated by prolonged continuous exposure to increasing concentrations of each drug. A parallel control (H460 stock) of the cell line in the absence of the compounds was kept in culture for the same time.
(§2) Cells were seeded on 96-well plates (B D, Falcon, Bioscience, San Jose, Calif., USA) at a density of 6000 cells/well, and incubated for 24 h under standard conditions. Then, cells were treated with different concentrations of the ChoK inhibitors (quadruplicates of each concentration) and maintained for 72 hours. […] Absorbance is read at 595 nm in a VersaMax Microplate Reader (Molecular Devices, Sunnyvale, Calif., USA). For sensitization with acid ceramidase inhibitor, cells were pre-treated 4 hours with the correspondent IC50 for NOE before treatment with ChoK inhibitors. NOE (N-Oleoyl ethanolamine) was obtained from Calbiochem (La Jolla, Calif., USA).
(§3) To further study the mechanism underlying resistance to ChoK inhibition, as well as the implication of acid ceramidase in this effect, we used the human NSCLC-derived H460 cell line for a set of in vitro experiments. […]

[2] = test system: H460 RSM-932AR cells; experiment: Cell proliferation assay (MTT), H460 line resistant to RSM-932A; format: cell-based, human
Protocol: as §1, §2, §3

[3] = test system: H460 non-small lung cancer cells; experiment: Cell proliferation assay (MTT), H460; format: cell-based, human
[4] = test system: primary cultures of resected NSCLC tumours; experiment: Primary cultures of NSCLC tumours treated 10 days, Cristal Violet quantification; format: cell-based, human; conditions: for RESISTANT (% of samples) / RESISTANT (number of tumour samples) / SENSITIVES (% of samples) / SENSITIVES (number of tumour samples): primary NSCLC tumour cultures, 0-20 μM, 10 days
Excerpt: Specimens of lung cancer tissue from 84 randomly selected patients who underwent surgical resection of NSCLC between 2001 and 2004 and that were followed up by The Medical Oncology division at La Paz Hospital in Madrid were used for this analysis. No adjuvant therapy was administrated to these patients. The study was approved by the institutional review board of the hospitals, and written informed consent was obtained from all patients.
Resected tissues from NSCLC patients were dissociated (Cell dissociation sieve-tissued grinder Kit CD1, SIGMA), and the obtained cells were seeded in 24 well plates (BD, Falcon, Bioscience, San Jose, Calif., USA). […] The final persistent population in each well was quantified by the method of Cristal Violet as previously described (Rodríguez-González, A. et al., Oncogene, 22:8803-8812). […]

[5] = test system: H460 MN58R cells; experiment: Cell proliferation assay (MTT), H460 line resistant to MN58b; format: cell-based, human
Protocol: as §1, §2, §3

[6] = test system: DLD-1, HT-29, HCT-116, SW620 and SW480; experiment: MTT sensitivity in five colon cancer derived cell lines; format: cell-based; conditions: five colon cancer derived cell lines (FIG. 7)
Excerpt: (§4) To that end, five colon cancer derived cell lines were used: DLD-1, HT-29, HCT-116, SW620 and SW480.

[7] = test system: SW620 colon cancer derived cells; experiment: MTT cytotoxicity, ChoKI and TRAIL, SW620; conditions: SW620 (FIG. 7B)
Excerpt: as §4

[8] = test system: HT-29 colon cancer derived cells; experiment: MTT cytotoxicity, ChoKI and TRAIL, HT-29; conditions: HT-29, drug alone
Excerpt: as §4

[9] = test system: DLD-1 colon cancer derived cells; experiment: MTT cytotoxicity, ChoKI and TRAIL, DLD-1; conditions: DLD-1, drug alone
Excerpt: as §4

[10] = test system: H460 cells; experiment: Combination index assay (Chou Talalay) cisplatin plus ChoK inhibitors; format: cell-based, human; conditions: cisplatin 3 h followed by 40 h of ChoK inhibitor, CI<1 synergistic, CIs<0.5 strong synergistic
Protocol: All experiments were performed in quadruplicate.

[11] = test system: H1299 non-small lung cancer cells; experiment: Cell proliferation assay (MTT), H1299; format: cell-based; conditions: Homo sapiens
Protocol: (§5) All cell lines used in this study were maintained under standard conditions of temperature (37° C.), humidity (95%), and carbon dioxide (5%). Human primary bronchial epithelial cells, NHBE (BEC) (Cambrex, CC-2541) were grown in BEGM (Bronchial Epithelial cell growth media) BulletKit (Cambrex, CC-3170). Human primary mammary epithelial cells, HMEC (Clonetics, CC-2551) were grown in MEBM medium supplemented with a bullet kit (Clonetics, CC-3150). Epithelial non-small lung cancer cells H460 and H1299, and small cell lung cancer cell lines H510 and H82 were maintained in RPMI supplemented with 10% Fetal Bovine Serum (FBS) (Life Technologies, Grand Island, N.Y.).
as §2, with “conditions.” for “conditions. Then, cells were treated with different concentrations of the ChoK inhibitors (quadruplicates of each concentration) and maintained for 72 hours.”

[12] = test system: H82 small cell lung cancer cells; experiment: Cell proliferation assay (MTT), H82; format: cell-based; conditions: Homo sapiens
Protocol: as §5
as §2, with “conditions.” for “conditions. Then, cells were treated with different concentrations of the ChoK inhibitors (quadruplicates of each concentration) and maintained for 72 hours.”

[13] = test system: Human primary bronchial epithelial cells, NHBE (BEC); experiment: Cell proliferation assay (MTT), Primary BEC; format: cell-based
Protocol: as §5
as §2, with “conditions.” for “conditions. Then, cells were treated with different concentrations of the ChoK inhibitors (quadruplicates of each concentration) and maintained for 72 hours.”

[14] = test system: Human primary mammary epithelial cells, HMEC; experiment: Cell proliferation assay (MTT), Primary HMEC; format: cell-based
Protocol: as §5
as §2, with “conditions.” for “conditions. Then, cells were treated with different concentrations of the ChoK inhibitors (quadruplicates of each concentration) and maintained for 72 hours.”

[15] = test system: H510 small cell lung cancer cells; experiment: Cell proliferation assay (MTT), H510; format: cell-based; conditions: Homo sapiens
Protocol: as §5
as §2, with “conditions.” for “conditions. Then, cells were treated with different concentrations of the ChoK inhibitors (quadruplicates of each concentration) and maintained for 72 hours.”

[16] = Homo sapiens, NCI-H460, 72 h, H460, single agent (Table 7), read-out: IC50 72 h
[17] = Homo sapiens, NCI-H460, read-out: IC50
[18] = of 84 patients, nearly 100% of cells alive at 20 μM at day 10

## [NH2][Pt]([NH2])([Cl])[Cl] [cDDP, cisplatin, reference compound]
[1]
  IC50: 4.5 µg/mL
[2]
  IC50: 1.5 µg/mL
[3]; H460
  IC50: 5 µg/mL
[4]
  RESISTANT (% of samples): 50%
  RESISTANT (number of tumour samples): 31
  SENSITIVES (% of samples): 50%
  SENSITIVES (number of tumour samples): 31
[5]
  IC50: 2 µg/mL

## CCCCCCCC/C=C\CCCCCCCC(=O)NCCO [NOE, N-oleoylethanolamine, reference compound]
[3]; [16]
  IC50: 32500 nM

## TRAIL: extracellular domain of human TRAIL (amino acids 95-281)
[6]
  sensitivity across the cell lines: very similar for all cell lines except for SW620
[7]
  sensitivity to treatment: nearly resistant
[8]
  cytotoxicity: 18%
[9]
  cytotoxicity, percentage of cell death: 12%

## CC(=O)O[C@H]1C(=O)[C@@]2(C)[C@H]([C@H](OC(=O)c3ccccc3)[C@]3(O)C[C@H](OC(=O)[C@H](O)[C@@H](NC(=O)c4ccccc4)c4ccccc4)C(C)=C1C3(C)C)[C@]1(OC(C)=O)CO[C@@H]1C[C@@H]2O [Taxol]
[4]
  RESISTANT (% of samples): 56.5%
  RESISTANT (number of tumour samples): 35
  SENSITIVES (% of samples): 43.5%
  SENSITIVES (number of tumour samples): 27

## CCC1=C[C@@H]2CN(C1)Cc1c([nH]c3ccccc13)[C@@](C(=O)OC)(c1cc3c(cc1OC)N(C)[C@H]1[C@@](O)(C(=O)OC)[C@H](OC(C)=O)[C@]4(CC)C=CCN5CC[C@]31[C@@H]54)C2 [Vinolrelbine, vinorelbine]
[4]
  RESISTANT (% of samples): 61.5%
  RESISTANT (number of tumour samples): 24
  SENSITIVES (% of samples): 38.5%
  SENSITIVES (number of tumour samples): 15

## Nc1ccn([C@@H]2O[C@H](CO)[C@@H](O)C2(F)F)c(=O)n1 [Gemcitabine]
[4]
  RESISTANT (% of samples): 65.4%
  RESISTANT (number of tumour samples): 34
  SENSITIVES (% of samples): 34.6%
  SENSITIVES (number of tumour samples): 18

## CN(C)c1cc[n+](Cc2ccc(CCCCc3ccc(C[n+]4ccc(N(C)C)cc4)cc3)cc2)cc1 [MN58b, 1,4-(4-4′-Bis-((4-(dimethylamine)pyridinium-1-yl)methyl)diphenyl)butane dibromide]
[1]; Homo sapiens, read-out: IC50
  IC50: 390 nM
[10]
  Combination index (CI) with cisplatin: 0.1
[11]; NCI-H1299, 48 h, read-out: IC50 48 h
  IC50: 10300 ± 2500 nM
[11]; NCI-H1299, 72 h, read-out: IC50 72 h
  IC50: 2700 ± 700 nM
[11]; NCI-H1299, 144 h, read-out: IC50 144 h
  IC50: 900 ± 100 nM
[12]; H82, 48 h, read-out: IC50 48 h
  IC50: 1900 ± 200 nM
[12]; H82, 72 h, read-out: IC50 72 h
  IC50: 800 ± 40 nM
[12]; H82, 144 h, read-out: IC50 144 h
  IC50: 270 ± 10 nM
[2]; [17]
  IC50: 28800 nM
[13]; 48 h, read-out: IC50 48 h
  IC50: 40500 ± 6200 nM
[13]; 72 h, read-out: IC50 72 h
  IC50: 18300 ± 4800 nM
[13]; 144 h, read-out: IC50 144 h
  IC50: 4200 ± 800 nM
[14]; 48 h, read-out: IC50 48 h
  IC50: 44700 ± 4950 nM
[14]; 72 h, read-out: IC50 72 h
  IC50: 20900 ± 2700 nM
[14]; 144 h, read-out: IC50 144 h
  IC50: 3400 ± 130 nM
[3]; Homo sapiens, NCI-H460, 48 h, H460, 48 h, read-out: IC50 48 h
  IC50: 7030 ± 2030 nM
[3]; Homo sapiens, NCI-H460, 72 h, H460, 72 h (Table 6), read-out: IC50 72 h
  IC50: 2600 ± 800 nM
[3]; [16]
  IC50: 280 nM
[3]; Homo sapiens, NCI-H460, 144 h, H460, 144 h, read-out: IC50 144 h
  IC50: 1100 ± 100 nM
[3]; Homo sapiens, NCI-H460, H460 (Table 8), read-out: IC50
  IC50: 280 nM
[4]; among the 45 sensitive tumours
  samples highly sensitive (%): 33.3%
  samples partially sensitive (%): 66.7%
[4]; among the 45 sensitive tumours, around 50% of cells alive at end of treatment
  samples partially sensitive (number): 30
[4]; among the 45 sensitive tumours, viability abolished at low concentrations, day 10
  samples highly sensitive (number): 15
[4]; of 84 patients, day 10
  tumours sensitive to the antiproliferative effect (%): 53.6%
  tumours sensitive to the antiproliferative effect (number): 45
[4]; [18]
  samples fully resistant (%): 46,4%
  samples fully resistant (number): 39
[4]
  RESISTANT (% of samples): 44.4%
  RESISTANT (number of tumour samples): 28
  SENSITIVES (% of samples): 55.5% and 55%
  SENSITIVES (number of tumour samples): 35
[15]; NCI-H510, 48 h, read-out: IC50 48 h
  IC50: 1100 ± 100 nM
[15]; NCI-H510, 72 h, read-out: IC50 72 h
  IC50: 400 ± 50 nM
[15]; NCI-H510, 144 h, read-out: IC50 144 h
  IC50: 100 ± 30 nM
[5]; [17]
  IC50: 19200 nM
